pIC50: −log10 of the molar value. Where a name gives a salt, the structure may show the parent alone.
Each molecule was assayed against T1, PDE7A1 (Homo sapiens, UniProt Q13946) (assay: In vitro inhibition of phosphodiesterase 7 (enzymatic activity, cAMP substrate 50 nM)). Conditions: PDE7A1 expressed in Sf 21 insect cells; cAMP 50 nM; reaction 10 minutes; read-out: IC50 (PDE7).
T1 construct: made in house; host or cells: Sf21 insect cells (baculovirus expression system)
Type: biochemical
Protocol: The capacity of the compounds of the invention to inhibit cyclic nucleotide phosphodiesterases was evaluated by measuring their IC50 (concentration necessary to inhibit the enzymatic activity by 50%).
PDE3A3, PDE4D3, and PDE7A1 were cloned and expressed in insect cells Sf 21 using the baculovirus expression system. The source of PDE103 and of PDE503 were human cell lines (respectively TPH1 human monocytes and MCF7 human breast adenocarcinoma). The various types of phosphodiesterases were obtained partially purified on an anion exchange column (Mono Q) according to a method adapted from Lavan B. E., Lakey T., Houslay M.D., Biochemical Pharmacology, 1989;38(22):4123-4136.
Measurement of the enzymatic activity for the various types of PDE was then made according to a method adapted from Thompson W. J. et al., Advances in Cyclic Nucleotide Research, ed. G. Brooker et al. New York: Raven Press, 1979;10:69-92.
The substrate used was cGMP for PDE1 and PDE5 and cAMP for PDE3, PDE4, and PDE7. The substrate concentration was 0.2 μM for PDE1, PDE3, and PDE5, 0.25 μM for PDE4, and 50 nM for PDE7.
The enzymatic reaction was stopped after 1 hour for PDE1, PDE3, and PDE5 and 10 minutes for PDE4 and PDE7.

T1 sequence (Q13946 whole entry, species assumed): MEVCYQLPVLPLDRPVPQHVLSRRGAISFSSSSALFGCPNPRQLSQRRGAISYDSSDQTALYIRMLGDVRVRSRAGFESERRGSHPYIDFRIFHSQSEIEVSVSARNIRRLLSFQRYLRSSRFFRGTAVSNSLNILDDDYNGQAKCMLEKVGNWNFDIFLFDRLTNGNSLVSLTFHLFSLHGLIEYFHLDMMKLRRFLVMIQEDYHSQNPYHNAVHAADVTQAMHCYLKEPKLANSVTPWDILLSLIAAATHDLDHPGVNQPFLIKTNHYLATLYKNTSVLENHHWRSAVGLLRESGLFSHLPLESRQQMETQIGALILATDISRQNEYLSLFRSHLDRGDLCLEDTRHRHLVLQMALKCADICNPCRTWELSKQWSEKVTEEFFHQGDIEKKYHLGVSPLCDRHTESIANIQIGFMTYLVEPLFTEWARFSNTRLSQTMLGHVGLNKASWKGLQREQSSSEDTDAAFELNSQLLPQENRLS

How did the pIC50 turn out when `COc1cc(-c2nn(C)/c(=N/C3CCCCC3)s2)cc(O)c1OC` [I18,4, 5-(5-Cyclohexylimino-4-methyl-4,5-dihydro[1,3,4]thiadiazol-2-yl)-2,3-dimethoxy-phenol;compound with trifluoro-methanesulfonic Acid] was run?
The pIC50 was 7.04.

With `Cn1nc(-c2ccc(Cl)cc2)s/c1=N\C1CCCCC1` [I18,5, [5-(4-Chloro-phenyl)-3-methyl-3H-[1,3,4]thiadiazol-2-ylidene]-cyclohexyl-amine] as the molecule, how does the pIC50 read?
The pIC50 was 5.92.

`Cn1nc(-c2cccc(C(=O)O)c2)s/c1=N\C1CCCCC1` [I21,1, 3-(5-Cyclohexylimino-4-methyl-4,5-dihydro-[1,3,4]thiadiazol-2-yl)-benzoic acid] was tested. Which pIC50 did it give?
Its pIC50 is 6.06.

With `Cn1nc(-c2ccc(C(=O)O)cc2)s/c1=N\C1CCCCC1` [I37,1, 4-(5-Cyclohexylimino-4-methyl-4,5-dihydro-[1,3,4]thiadiazol-2-yl)-benzoic acid] as the molecule, how does the pIC50 read?
Its pIC50 is 6.26.

`Cn1nc(-c2ccc(C(=O)NO)cc2)s/c1=N\C1CCCCC1` [I37,2, 4-(5-Cyclohexylimino-4-methyl-4,5-dihydro-[1,3,4]thiadiazol-2-yl)-N-hydroxy-benzamide] was tested. Which pIC50 did it give?
Its pIC50 is 5.92.

`Cn1nc(-c2ccc(C(N)=O)cc2)s/c1=N\C1CCCCC1` [I37,3, 4-(5-Cyclohexylimino-4-methyl-4,5-dihydro-[1,3,4]thiadiazol-2-yl)-benzamide] was tested. Which pIC50 did it give?
The pIC50 was 7.21.

How did the pIC50 turn out when `Cn1nc(-c2ccc(C(=O)Nc3nn[nH]n3)cc2)s/c1=N\C1CCCCC1` [I37,4, 4-(5-Cyclohexylimino-4-methyl-4,5-dihydro-[1,3,4]thiadiazol-2-yl)-N-(2H-tetrazol-5-yl)-benzamide hydrochloride salt] was run?
The pIC50 was 6.82.

`Cn1nc(-c2ccc(C(=O)Nc3cccc4cccnc34)cc2)s/c1=N\C1CCCCC1` [I37,5, 4-(5-Cyclohexylimino-4-methyl-4,5-dihydro[1,3,4]thiadiazol-2-yl)-N-quinolin-8-yl-benzamide] was tested. Which pIC50 did it give?
The pIC50 was 7.03.

How did the pIC50 turn out when `COc1ccc(NC(=O)c2ccc(-c3nn(C)/c(=N/C4CCCCC4)s3)cc2)c(OC)n1` [I37,6, 4-(5-Cyclohexylimino-4-methyl-4,5-dihydro[1,3,4]thiadiazol-2-yl)-N-(2,6-dimethoxy-pyridin-3-yl)-benzamide] was run?
Its pIC50 is 7.01.

How did the pIC50 turn out when `CC(C)NC(=O)c1ccc(-c2nn(C)/c(=N/C3CCCCC3)s2)cc1` [I37,7, 4-(5-Cyclohexylimino-4-methyl-4,5-dihydro[1,3,4]thiadiazol-2-yl)-N-isopropyl-benzamide] was run?
The pIC50 was 7.07.

`CCNC(=O)c1ccc(-c2nn(C)/c(=N/C3CCCCC3)s2)cc1` [I37,8, 4-(5-Cyclohexylimino-4-methyl-4,5-dihydro[1,3,4]thiadiazol-2-yl)-N-ethyl-benzamide] was tested. Which pIC50 did it give?
Its pIC50 is 7.19.

With `CN(C)CCNC(=O)c1ccc(-c2nn(C)/c(=N/C3CCCCC3)s2)cc1` [I37,9, 4-(5-Cyclohexylimino-4-methyl-4,5-dihydro[1,3,4]thiadiazol-2-yl)-N-(2-dimethylamino-ethyl)-benzamide] as the molecule, how does the pIC50 read?
Its pIC50 is 7.12.

With `Cn1nc(-c2ccc(C(=O)NCc3ccncc3)cc2)s/c1=N\C1CCCCC1` [I37,10, 4-(5-Cyclohexylimino-4-methyl-4,5-dihydro[1,3,4]thiadiazol-2-yl)-N-pyridin-4-ylmethyl-benzamide] as the molecule, how does the pIC50 read?
The pIC50 was 7.36.

`CN1CCC(N(C)C(=O)c2ccc(-c3nn(C)/c(=N/C4CCCCC4)s3)cc2)CC1` [I37,11, 4-(5-Cyclohexylimino-4-methyl-4,5-dihydro-[1,3,4]thiadiazol-2-yl)-N-methyl-N-(1-methyl-piperidin-4-yl)-benzamide] was tested. Which pIC50 did it give?
The pIC50 was 7.14.

From patent US20030045557A1, “Thiadiazoles and oxadiazoles and their use as phosphodiesterase-7 inhibitors” (priority 2000, published 2003)
